# How the values were obtained:
# Assay type in all cases: in vivo, C57BL/6J mice
# [1] = system: bleomycin-induced pulmonary fibrosis model; test: Lung function test (EMKA WBP) in bleomycin-induced pulmonary fibrosis mice
# Description: (§1) Fifty male SPF C57BL/6J mice were randomized by weight into the normal control group, model control group, positive control group, GLP-4 low-dose group, and GLP-4 high-dose group, with 10 animals in each group. Ten animals not subjected to modeling served as the normal control group. The remaining animals were modeled by administering bleomycin via tracheal injection at 5 mg/kg, 0.1 mL per mouse, one-time administration. Starting on day 7 post-modeling, the study drug, positive drug, or solvent was administered orally at 10 mL/kg once daily for 21 consecutive days. During the experimental period, daily observations were made for each group's food intake, activity, breathing, and responsiveness; pulmonary function was tested before administration and about 24 h after the last dose. After completing pulmonary function tests, the mice were euthanized for pathological sampling.
# Lung function: Lung function in mice was measured using the EMKA WBP animal lung function assessment system both before administration and approximately 24 h after the last dose. Measurements included inspiratory (expiratory) duration, maximum inspiratory (expiratory) volume, tidal volume, expiratory volume, relaxation time, minute ventilation, respiratory rate, end inspiratory (expiratory) pause, bronchoconstriction parameters, 50% expiratory flow, alveolar ventilation, and number of breaths.
# [2] = system: bleomycin-induced pulmonary fibrosis model; test: General behavioral observation in bleomycin-induced pulmonary fibrosis mice; conditions: oral 21 days, pirfenidone 225 mg/kg, GLP-4 low-dose 200 mg/kg
# Description: as §1
# General behavioral observation: During the trial period, daily observations were made on the animals' consumption, activity, breathing, and responsiveness.
# [3] = system: bleomycin-induced pulmonary fibrosis model; test: Pulmonary histopathology (H&E, pathology scores) in bleomycin-induced pulmonary fibrosis mice
# Description: as §1
# Pulmonary histopathology: Following lung function tests, mice were euthanized, and a laparotomy was performed. Whole-body perfusion was conducted using saline through the portal vein followed by thoracotomy and perfusion-fixation with 10% formaldehyde solution for 5 min. The trachea was then ligated, the lungs were harvested, and further fixed in formalin solution for 48 h. Hematoxylin and eosin (H&E) staining was performed to observe pathological changes.
# [4] = 21 days post-dosing, pirfenidone 225 mg/kg po daily
# [5] = prior to administration (one week post-modeling), pirfenidone 225 mg/kg group
smiles,measurement,setting,value
"Cc1ccc(=O)n(-c2ccccc2)c1 [positive control, pirfenidone]",AV (alveolar ventilation),[1]; [4],119.87 ± 38.33 mL
same,EEP (end expiratory pause),[1]; [4],5.89 ± 0.57 ms
same,EF50 (50% expiratory flow),[1]; [4],5.31 ± 0.91 mL/s
same,EIP (end inspiratory pause),[1]; [4],18.83 ± 9.94 ms
same,EV (expiratory volume),[1]; [4],0.14 ± 0.01 mL
same,MV (minute ventilation),[1]; [4],64.98 ± 11.84 mL
same,PEF (peak expiratory flow),[1]; [4],5.59 ± 0.86 mL/s
same,PIF (peak inspiratory flow),[1]; [4],4.49 ± 0.75 mL/s
same,Penh (bronchoconstriction parameters),[1]; [4],0.56 ± 0.22
same,RT (relaxation time),[1]; [4],57.72 ± 22.68 ms
same,TV (tidal volume),[1]; [4],0.14 ± 0.01 mL
same,Te (expiratory duration),[1]; [4],73.20 ± 22.54 ms
same,Ti (inspiratory duration),[1]; [4],79.85 ± 12.82 ms
same,n (number of breaths),[1]; [4],40.22 ± 17.53
same,Lung function indices compared to the model control group,"[1]; bleomycin mice, 21 days post-dosing, pirfenidone 225 mg/kg, GLP-4 low-dose 200 mg/kg","significant increases in PIF, PEF, TV, EV, MV, EF50, and alveolar ventilation (AV)"
same,AV (alveolar ventilation),[1]; [5],70.49 ± 10.76 mL
same,EEP (end expiratory pause),[1]; [5],5.70 ± 0.71 ms
same,EF50 (50% expiratory flow),[1]; [5],5.68 ± 0.95 mL/s
same,EIP (end inspiratory pause),[1]; [5],62.63 ± 33.56 ms
same,EV (expiratory volume),[1]; [5],0.15 ± 0.02 mL
same,MV (minute ventilation),[1]; [5],52.78 ± 12.68 mL
same,PEF (peak expiratory flow),[1]; [5],5.94 ± 0.94 mL/s
same,PIF (peak inspiratory flow),[1]; [5],4.63 ± 0.69 mL/s
same,Penh (bronchoconstriction parameters),[1]; [5],0.44 ± 0.15
same,RT (relaxation time),[1]; [5],105.6 ± 46.61 ms
same,TV (tidal volume),[1]; [5],0.15 ± 0.02 mL
same,Te (expiratory duration),[1]; [5],120.91 ± 48.12 ms
same,Ti (inspiratory duration),[1]; [5],109.26 ± 23.25 ms
same,n (number of breaths),[1]; [5],23.82 ± 4.54
same,General behavior compared to the model control group,[2],"noticeable improvements in appetite, activity, breathing, responsiveness, and fur condition"
same,Fibrotic tissue proliferation,"[3]; bleomycin mice, H&E, pirfenidone 225 mg/kg, GLP-4 low-dose 200 mg/kg",no fibrotic tissue proliferation
same,Pathology score,"[3]; lung, pirfenidone 225 mg/kg po daily, 21 days",6.22 ± 3.31

# — US20250144131A1, “POLYSACCHARIDE COMPOUND WITH A DEFINED MOLECULAR STRUCTURE FOR THE TREATMENT OF PULMONARY FIBROSIS” (SHENZHEN YANDAI INVESTMENT CO., LTD, priority 2023, published 2025)
